In US9586975B2, “Macrocyclic salt-inducible kinase inhibitors” (ONCODESIGN S.A., priority 2013, dated 2017):
Counter-ions that a name gives are not always drawn.

Assays:
SIK2 recombinant protein = biological target: T1, SIK2 recombinant protein (Homo sapiens, UniProt Q9H0K1); assay: Radiometric protein kinase assay (33PanQinase Activity Assay) for inhibition of SIK2 kinase; type: biochemical; details: for remaining activity at 0.1 µM / remaining activity at 1 µM: 1 h; for remaining activity at 0.1 µM: compound at 0.1 μM; for remaining activity at 1 µM: compound at 1 μM; for IC50: ATP 1.0 μM, SIK2 0.3 nM, substrate RBER-Chktide
T1 construct: purchased Invitrogen Corporation
T1 sequence (Q9H0K1 whole entry): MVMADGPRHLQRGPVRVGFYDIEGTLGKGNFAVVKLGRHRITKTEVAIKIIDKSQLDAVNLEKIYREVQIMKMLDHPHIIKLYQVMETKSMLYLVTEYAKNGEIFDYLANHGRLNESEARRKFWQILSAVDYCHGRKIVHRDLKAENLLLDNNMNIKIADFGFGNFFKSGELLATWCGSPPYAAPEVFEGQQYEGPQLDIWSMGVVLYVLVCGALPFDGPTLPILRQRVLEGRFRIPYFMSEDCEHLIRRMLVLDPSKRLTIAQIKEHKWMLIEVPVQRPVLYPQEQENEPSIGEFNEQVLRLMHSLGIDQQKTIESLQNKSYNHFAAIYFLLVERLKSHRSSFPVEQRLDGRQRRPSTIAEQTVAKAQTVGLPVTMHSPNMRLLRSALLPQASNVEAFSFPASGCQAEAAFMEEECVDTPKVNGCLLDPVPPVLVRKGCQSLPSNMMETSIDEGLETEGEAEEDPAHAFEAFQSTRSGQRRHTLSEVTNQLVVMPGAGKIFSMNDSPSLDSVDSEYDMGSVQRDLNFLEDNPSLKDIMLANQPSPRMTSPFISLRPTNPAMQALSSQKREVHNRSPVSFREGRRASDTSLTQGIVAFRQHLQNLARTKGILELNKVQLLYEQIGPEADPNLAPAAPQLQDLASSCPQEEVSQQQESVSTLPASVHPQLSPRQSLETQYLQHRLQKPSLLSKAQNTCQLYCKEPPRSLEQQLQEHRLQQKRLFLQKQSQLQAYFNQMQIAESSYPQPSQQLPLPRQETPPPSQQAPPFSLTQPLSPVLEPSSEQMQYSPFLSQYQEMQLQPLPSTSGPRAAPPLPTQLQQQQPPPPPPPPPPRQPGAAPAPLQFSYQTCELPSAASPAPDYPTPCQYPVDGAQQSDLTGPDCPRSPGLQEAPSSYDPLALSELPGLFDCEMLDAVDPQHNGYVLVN
Procedure: The inhibition of SIK2 kinase was assessed using SIK2 recombinant protein in an in vitro peptide-based kinase assay.
A radiometric protein kinase assay (^33PanQinase® Activity Assay) is used for measuring the kinase activity. All assays are performed in 96-well FlashPlates™ from Perkin Elmer in a 50 μl reaction volume. The reaction cocktail is […] in 4 steps in the following order: • 10 μl of non-radioactive ATP solution (in H2O) • 25 μl of assay buffer/[γ-^33P]-ATP mixture • 5 μl of test sample in 10% DMSO • 10 μl of enzyme/substrate mixture
The assay for SIK2 contains 70 mM HEPES-NaOH pH 7.5, 3 mM MgCl2, 3 mM MnCl2, 3 μM Na-orthovanadate, 1.2 mM DTT, 50 μg/ml PEG20000, ATP (1.0 μM), [γ-^33P]-ATP (approx. 5×10^05 cpm per well), protein kinase SIK2 (0.3 nM) and substrate (RBER-Chktide), 2.0 μg/50 μl).
The kinase is obtained from Invitrogen Corporation.
The reaction cocktails were incubated at 30° C. for 60 minutes. The reaction was stopped with 50 μl of 2% (v/v) H3PO4, plates were aspirated and washed two times with 200 μl 0.9% (w/v) NaCl. Incorporation of ^33Pi (counting of “cpm”) was determined with a microplate scintillation counter.
The compounds are dissolved to 10 mM in DMSO. Where needed, solutions are sonicated in a bath sonicator.
Table 4 provides the pIC50 values and % Remaining activity values at two concentrations (1 μM and 0.1 μM) of the compounds according to the invention, obtained using the above mentioned kinase assay.

Structure (SMILES): CNCCN1CCOc2cccc(c2)-c2cnn3ccc(nc23)OCC1 (as salt: HCl) [Compound H86]
- melting point: 247 °C

Structure (SMILES): c1cc2cc(c1)-c1cnn3ccc(nc13)OCCCNCCCN2 (as salt: HCl) [Compound H89]
- melting point: 273.3 °C

Structure (SMILES): CN(C)CCNC(=O)N1CCNCCOc2cccc(c2)-c2cnn3ccc1nc23 [Compound A11]
- remaining activity at 0.1 µM (SIK2 recombinant protein): < 50%
- remaining activity at 1 µM (SIK2 recombinant protein): < 50%
- IC50 (SIK2 recombinant protein): < 100 nM
- melting point: > 300 °C

Structure (SMILES): O=C(C1CC1)N1CCNc2ccn3ncc(c3n2)-c2cc(CO)cc(c2)OCC1 [Compound B75]
- remaining activity at 0.1 µM (SIK2 recombinant protein): < 50%
- remaining activity at 1 µM (SIK2 recombinant protein): < 50%

Structure (SMILES): COCc1cc2cc(c1)-c1cnn3ccc(nc13)NCCNCCO2 [Compound H78]
- remaining activity at 0.1 µM (SIK2 recombinant protein): < 50%
- remaining activity at 1 µM (SIK2 recombinant protein): < 50%
- IC50 (SIK2 recombinant protein): < 100 nM

Structure (SMILES): COCc1cc2cc(c1)-c1cnn3ccc(nc13)NCCN(C(=O)C1CC1)CCO2 [Compound H79]
- IC50 (SIK2 recombinant protein): < 100 nM
- melting point: > 300 °C

Structure (SMILES): OCc1cc2cc(c1)-c1cnn3ccc(nc13)NCCNCCO2 [Compound H80]
- IC50 (SIK2 recombinant protein): < 100 nM

Structure (SMILES): OCc1cc2cc(c1)-c1cnn3ccc(nc13)NCCN(CC1CC1)CCO2 [Compound H81]
- remaining activity at 0.1 µM (SIK2 recombinant protein): < 50%
- remaining activity at 1 µM (SIK2 recombinant protein): < 50%
- IC50 (SIK2 recombinant protein): < 100 nM
- melting point: 179.1 °C

Structure (SMILES): Cc1ccc2cc1OCCNCCNc1ccn3ncc-2c3n1 [Compound H82]
- remaining activity at 0.1 µM (SIK2 recombinant protein): < 50%
- remaining activity at 1 µM (SIK2 recombinant protein): < 50%
- IC50 (SIK2 recombinant protein): < 100 nM
- melting point: > 300 °C

Structure (SMILES): Fc1cc2cc(c1)-c1cnn3ccc(nc13)NCCN(C1CCNCC1)CCO2 [Compound H83]
- remaining activity at 0.1 µM (SIK2 recombinant protein): < 50%
- remaining activity at 1 µM (SIK2 recombinant protein): < 50%
- IC50 (SIK2 recombinant protein): < 100 nM
- melting point: 246.2 °C

Structure (SMILES): NCCN1CCNc2ccn3ncc(c3n2)-c2cccc(c2)OCC1 [Compound H84]
- remaining activity at 0.1 µM (SIK2 recombinant protein): < 50%
- remaining activity at 1 µM (SIK2 recombinant protein): < 50%
- IC50 (SIK2 recombinant protein): < 100 nM
- melting point: > 300 °C

Structure (SMILES): c1cc2cc(c1)-c1cnc3ccc(nn13)SCCNCCCN2 [Compound H85]
- remaining activity at 0.1 µM (SIK2 recombinant protein): < 50%
- remaining activity at 1 µM (SIK2 recombinant protein): < 50%
- IC50 (SIK2 recombinant protein): < 100 nM
- melting point: 173.1 °C

Structure (SMILES): CNCCN1CCOc2cccc(c2)-c2cnn3ccc(nc23)OCC1 [Compound H86]
- remaining activity at 0.1 µM (SIK2 recombinant protein): < 50%
- remaining activity at 1 µM (SIK2 recombinant protein): < 50%
- IC50 (SIK2 recombinant protein): < 100 nM

Structure (SMILES): c1cc2cc(c1)-c1cnn3ccc(nc13)OCCCNCCO2 [Compound H87]
- remaining activity at 0.1 µM (SIK2 recombinant protein): > 50%
- remaining activity at 1 µM (SIK2 recombinant protein): < 50%
- IC50 (SIK2 recombinant protein): < 100 nM

Structure (SMILES): c1cc2cc(c1)-c1cnn3ccc(nc13)NCCCNCCCO2 [Compound H88]
- remaining activity at 0.1 µM (SIK2 recombinant protein): < 50%
- remaining activity at 1 µM (SIK2 recombinant protein): < 50%
- IC50 (SIK2 recombinant protein): < 100 nM

Structure (SMILES): c1cc2cc(c1)-c1cnn3ccc(nc13)OCCCNCCCN2 [Compound H89]
- remaining activity at 0.1 µM (SIK2 recombinant protein): > 50%
- remaining activity at 1 µM (SIK2 recombinant protein): < 50%
- IC50 (SIK2 recombinant protein): < 100 nM

Structure (SMILES): FC(F)(F)c1cc2cc(c1)-c1cnn3ccc(nc13)NCCCNCCO2 [Compound H90]
- remaining activity at 0.1 µM (SIK2 recombinant protein): < 50%
- remaining activity at 1 µM (SIK2 recombinant protein): < 50%
- IC50 (SIK2 recombinant protein): < 100 nM
- melting point: > 300 °C

Structure (SMILES): CN1CCCNc2ccn3ncc(c3n2)-c2cc(cc(C(F)(F)F)c2)OCC1 [Compound H91]
- remaining activity at 0.1 µM (SIK2 recombinant protein): < 50%
- remaining activity at 1 µM (SIK2 recombinant protein): < 50%
- IC50 (SIK2 recombinant protein): < 100 nM

Structure (SMILES): Cc1cc2cc(c1)-c1cnn3ccc(nc13)NCCCNCCO2 [Compound H92]
- remaining activity at 0.1 µM (SIK2 recombinant protein): < 50%
- remaining activity at 1 µM (SIK2 recombinant protein): < 50%
- IC50 (SIK2 recombinant protein): < 100 nM
- melting point: > 300 °C

Structure (SMILES): Cc1cc2cc(c1)-c1cnn3ccc(nc13)NCCCN(C)CCO2 [Compound H93]
- remaining activity at 0.1 µM (SIK2 recombinant protein): < 50%
- remaining activity at 1 µM (SIK2 recombinant protein): < 50%
- IC50 (SIK2 recombinant protein): < 100 nM

Structure (SMILES): CN1CCCOc2cccc(c2)-c2cnn3ccc(nc23)NCC1 [Compound H94]
- IC50 (SIK2 recombinant protein): < 100 nM
- melting point: 288 °C

Structure (SMILES): CCN1CCCNc2ccn3ncc(c3n2)-c2cc(C)cc(c2)OCC1 [Compound H95]
- remaining activity at 0.1 µM (SIK2 recombinant protein): < 50%
- remaining activity at 1 µM (SIK2 recombinant protein): < 50%
- IC50 (SIK2 recombinant protein): < 100 nM

Structure (SMILES): OCc1cc2cc(c1)-c1cnn3ccc(nc13)NCCCNCCO2 [Compound H96]
- remaining activity at 0.1 µM (SIK2 recombinant protein): < 50%
- remaining activity at 1 µM (SIK2 recombinant protein): < 50%
- IC50 (SIK2 recombinant protein): < 100 nM

Structure (SMILES): OCCN1CCNc2ccn3ncc(c3n2)-c2cc(Cl)cc(c2)OCC1 [Compound H97]
- remaining activity at 0.1 µM (SIK2 recombinant protein): < 50%
- remaining activity at 1 µM (SIK2 recombinant protein): < 50%
- IC50 (SIK2 recombinant protein): < 100 nM
- melting point: 285.2 °C

Structure (SMILES): c1cc2cc(c1)-c1cnn3ccc(nc13)SCCNCCCO2 [Compound H98]
- remaining activity at 0.1 µM (SIK2 recombinant protein): < 50%
- remaining activity at 1 µM (SIK2 recombinant protein): < 50%
- IC50 (SIK2 recombinant protein): 100 to 1000 nM
- melting point: 178.1 °C

Structure (SMILES): c1cc2cc(c1)-c1cnc3ccc(nn13)SCCNCCCO2 [Compound H99]
- IC50 (SIK2 recombinant protein): 100 to 1000 nM
- melting point: 125.6 °C

Structure (SMILES): OCc1cc2cc(c1)-c1cnn3ccc(nc13)NCCCNCCN2 [Compound H100]
- remaining activity at 0.1 µM (SIK2 recombinant protein): < 50%
- remaining activity at 1 µM (SIK2 recombinant protein): < 50%
- IC50 (SIK2 recombinant protein): < 100 nM
